Results as given in patent US11679095B2, “Macrophages/microglia in neuro-inflammation associated with neurodegenerative diseases” (The General Hospital Corporation, priority 2016, dated 2023).
Entries after “also recorded” stand apart in the source; their conditions may differ. Values belong to the compound of their own block, whether it stands above or below them.

Key:
[1] = tested on: naïve BV2 microglial cells; assay: Aβ42 uptake ELISA, 3 h cromolyn derivative treatment, naïve BV2; format: cell-based; details: 3 hours + 2 hours
Procedure: (§1) To investigate the effect of cromolyn derivatives on Aβ42 uptake in microglia, naïve BV2 or BV2-CD33^WT cells were plated in proliferating media. On the following day, cells were treated with DMSO (control) or the compounds at different concentrations in proliferating media for 3 hours. […] Afterwards, cells were washed with PBS and treated with DMSO or compounds in the presence of the untagged Aβ42 peptide (400 nM) in DMEM media for 2 hours. Compound toxicity was assessed in the media collected at the end of the treatment with CytoTox-ONE™ lactate dehydrogenase (LDH) assay. The remaining cells in the plate were washed with cold PBS and lysed with RIPA buffer supplemented with protease and phosphatase inhibitors. Protein concentrations in the lysate supernatants were determined using the Pierce™ BCA protein assay kit and 2-3 μg/well of total protein from each lysate was analyzed for Aβ42 uptake using the Aβ42 ELISA kit from Wako. Toxic compound concentrations were excluded from further studies.
To test whether cromolyn derivatives modulate Aβ42 uptake, naïve BV2 microglial cells were treated with DMSO (control) or cromolyn derivative compounds at different concentrations for 3 hours. Afterwards, the cells were washed and treated with DMSO or compounds in the presence of untagged Aβ42 peptide for 2 hours. At the end of the treatment, the cell lysates were collected. […]

BV2-CD33^WT cells = assay: Aβ42 uptake ELISA, 3 h cromolyn derivative treatment, BV2-CD33^WT; format: cell-based
Procedure: as §1
Further, whether cromolyn derivatives impact Aβ42 uptake and clearance in BV2-CD33^WT cells was determined by two independent sets of experiments. BV2-CD33^WT cells were treated with DMSO (control) or cromolyn derivatives at different concentrations ranging between 5 and 150 μM.
The compound C2 was tested with other cromolyn derivatives in the second set of experiments.

[2] = Solubility in DMSO (stock solutions); format: physicochemical; details: in comparison to the other compounds / earlier aliquot
Procedure: Therefore, a 25 mM stock solutions for all the compounds except for C3 and C4 were prepared. The stock solutions for C3 and C4 were prepared at 5 mM and 7.5 mM, respectively. C1 is the parent compound—cromolyn disodium.

[3] = tested on: naïve BV2 microglial cells; assay: CytoTox-ONE lactate dehydrogenase (LDH) toxicity assay; format: cell-based; details: 3 hours + 2 hours with Aβ42
Procedure: On the following day, cells were treated with DMSO (control) or the compounds at different concentrations in proliferating media for 3 hours. […] Afterwards, cells were washed with PBS and treated with DMSO or compounds in the presence of the untagged Aβ42 peptide (400 nM) in DMEM media for 2 hours. Compound toxicity was assessed in the media collected at the end of the treatment with CytoTox-ONETM lactate dehydrogenase (LDH) assay. The remaining cells in the plate were washed with cold PBS and lysed with RIPA buffer supplemented with protease and phosphatase inhibitors. […] Toxic compound concentrations were excluded from further studies. To investigate whether cromolyn derivatives induce cytotoxicity at higher doses, naïve BV2 microglial cells were incubated with DMSO (vehicle) or cromolyn derivatives at different concentrations for 3 hours. The cells were then washed and incubated with DMSO or compounds and soluble untagged Aβ42 for additional 2 hours. Afterwards, the cell media was collected and measured LDH released by the damaged cells to identify the compounds that induce cytolysis.

BV2 microglial cells = assay: Aβ42 uptake in BV2 microglial cell cultures, cromolyn and/or ibuprofen (ELISA); format: cell-based; details: 10 μM, 100 μM, 1 mM; 16 hours, then 3 hours with soluble Aβ42
Procedure: BV2 microglial cell cultures were treated with cromolyn and/or ibuprofen (10 μM, 100 μM, 1 mM) for 16 hours. Afterwards, cells were incubated with soluble Aβ42 and the compounds for 3 hours. After incubation, cells were collected for ELISA analysis. […] Results were derived from three independent experiments; **p<0.01, ***p<0.001, one-way ANOVA, Tukey's test). Data are represented as mean±SEM.

SMILES: O=c1cc(CO)oc2cccc(OCC(F)COc3cccc4oc(CO)cc(=O)c34)c12 [C6]
- Aβ42 uptake ([1]; different concentrations): robust inhibition of Aβ42 uptake
- Aβ42 uptake (BV2-CD33^WT cells; different concentrations, first set of experiments, vs DMSO): dose-dependent effect in mediating inhibition of Aβ42 uptake

- solubility in DMSO [2]: lower solubility in DMSO
- IC50 (BV2-CD33^WT cells; GraphPad Prism 7, first set of experiments): 54.7 µM
SMILES: CCOC(=O)c1cc(=O)c2c(OCC(F)COc3cccc4oc(C(=O)OCC)cc(=O)c34)cccc2o1 [C4]
- Aβ42 uptake ([1]; 75 μM, vs vehicle): increased uptake of Aβ42 peptide; also recorded: significantly increased Aβ42 uptake levels
- Aβ42 uptake (BV2-CD33^WT cells; 50 μM, first set of experiments): dose-dependent effect
- Aβ42 uptake in comparison to DMSO (BV2-CD33^WT cells; 75 μM, first set of experiments): two-fold increase; also recorded: increased uptake of Aβ42
- Aβ42 uptake (BV2-CD33^WT cells; 75 μM, second set of experiments): most effective in increasing the Aβ42 uptake
- Aβ42 uptake (BV2-CD33^WT cells; 50 and 75 μM, second set of experiments, vs DMSO): effectively induced Aβ42 uptake
- CD33-mediated inhibition of Aβ uptake and clearance (BV2-CD33^WT cells; both sets of experiments): reversed the CD33-mediated inhibition of Aβ uptake and clearance
- Aβ42 uptake (BV2-CD33^WT cells; lower concentrations, second set of experiments, vs DMSO): dose-dependent effect at lower concentrations

- solubility in DMSO [2]: lower solubility in DMSO
SMILES: O=C(O)c1cc(=O)c2c(OCC(O)COc3cccc4oc(C(=O)O)cc(=O)c34)cccc2o1 [C1, Cromolyn Disodium, reference compound]

- solubility in DMSO [2]: lower solubility in DMSO
SMILES: CCOC(=O)c1cc(=O)c2c(OCC(O)COc3cccc4oc(C(=O)OCC)cc(=O)c34)cccc2o1 [C3]

SMILES: CC(C)(C)C(=O)OCOC(=O)c1cc(=O)c2c(OCC(O)COc3cccc4oc(C(=O)OCOC(=O)C(C)(C)C)cc(=O)c34)cccc2o1 [C8]
- toxicity (LDH released) ([3]; 100 and 150 μM, vs DMSO): showing toxicity; also recorded: increased toxicity
- concentration at which toxicity is displayed in LDH assay [3]: ≥ 100 µM

SMILES: CC(C)Cc1ccc(C(C)C(=O)O)cc1 (stereo not shown) [ibuprofen]
- microglial Aβ42 uptake (BV2 microglial cells): not ibuprofen promotes microglial Aβ42 uptake
